Values of other authors in patent publication US20150150814A1, “STABLE ORAL PHARMACEUTICAL COMPOSITION OF SOLIFENACIN” (RANBAXY LABORATORIES LIMITED, priority 2013, published 2015).

Settings: water at room temperature

- solubility in water: freely soluble
Compound: O=C(O[C@H]1CN2CCC1CC2)N1CCc2ccccc2[C@@H]1c1ccccc1 [Solifenacin succinate, (1S)-(3R)-1-azabicyclo [2.2.2] oct-3-yl3,4-dihydro-1-phenyl-2(1H)iso-quinolinecarboxylate]
